# Source: PubChem BioAssay (NCI)
#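 Assay format: 96-well plates, 48-hour exposure. The concentration for 50% growth inhibition is given as GI50. The concentration for full growth arrest is given as TGI.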
# Experiments:
# Experiment in all cases: DTP human tumour cell line panel, 48 h
# [1] = tested on: HS 578T breast
# [2] = tested on: SW-620 colon
# [3] = tested on: BT-549 breast
# [4] = tested on: KM12 colon
# [5] = tested on: U251 CNS
# [6] = tested on: PC-3 prostate
# [7] = tested on: OVCAR-8 ovarian
# [8] = tested on: SF-295 CNS
# [9] = tested on: UACC-257 melanoma
# [10] = tested on: RPMI-8226 leukemia
# [11] = tested on: TK-10 renal
# [12] = tested on: A549 NSCLC
# [13] = tested on: A498 renal
# [14] = tested on: HL-60(TB) leukemia
# [15] = tested on: NCI/ADR-RES ovarian
# [16] = tested on: NCI-H522 lung
# [17] = tested on: SNB-19 CNS
# [18] = tested on: 786-0 renal
# [19] = tested on: M14 melanoma
# [20] = tested on: SK-MEL-2 melanoma
# [21] = tested on: MDA-MB-231 breast
# [22] = tested on: MCF7 breast
# [23] = tested on: MOLT-4 leukemia
# [24] = tested on: SF-268 CNS
# [25] = tested on: UO-31 renal
# [26] = tested on: NCI-H23 lung
# [27] = tested on: IGROV1 ovarian
# [28] = tested on: HT29 colon
# [29] = tested on: SNB-75 CNS
# [30] = tested on: LOX IMVI melanoma
# [31] = tested on: HOP-92 NSCLC
# [32] = tested on: NCI-H226 lung
# [33] = tested on: DU-145 prostate
# [34] = tested on: HCC-2998 colon
# [35] = tested on: SF-539 CNS
# [36] = tested on: CAKI-1 renal
# [37] = tested on: T-47D breast
# [38] = tested on: HCT-116 colon
# [39] = tested on: UACC-62 melanoma
# [40] = tested on: OVCAR-3 ovarian
# [41] = tested on: OVCAR-4 ovarian
# [42] = tested on: COLO 205 colon
# [43] = tested on: MALME-3M melanoma
# [44] = tested on: HOP-62 NSCLC
# [45] = tested on: ACHN renal
# [46] = tested on: CCRF-CEM leukemia
# [47] = tested on: NCI-H460 lung
# [48] = tested on: SK-MEL-5 melanoma
# [49] = tested on: EKVX NSCLC
# [50] = tested on: SK-MEL-28 melanoma
# [51] = tested on: SR leukemia
# [52] = tested on: RXF 393 renal
# [53] = tested on: HCT-15 colon
# [54] = tested on: K-562 leukemia
# [55] = tested on: MDA-MB-435
# [56] = tested on: SN12C renal
# [57] = tested on: OVCAR-5 ovarian
# [58] = tested on: SK-OV-3 ovarian
compound,measurement,setting,value
CN1CCN(Cc2ccc(NC(=O)c3cncc(C#Cc4cnc5[nH]ncc5c4)c3)cc2C(F)(F)F)CC1,GI50,[1],1270 nM
same,TGI,[1],13.9 µM
same,GI50,[2],1650 nM
same,TGI,[2],16.2 µM
same,GI50,[3],3.81 µM
same,TGI,[3],16.7 µM
same,GI50,[4],107 nM
same,TGI,[4],12.1 µM
same,GI50,[5],4.36 µM
same,TGI,[5],25.4 µM
same,GI50,[6],3.7 µM
same,TGI,[6],60.9 µM
same,GI50,[7],4.26 µM
same,TGI,[7],20.3 µM
same,GI50,[8],3.13 µM
same,TGI,[8],16.3 µM
same,GI50,[9],2860 nM
same,TGI,[9],17 µM
same,GI50,[10],4.03 µM
same,TGI,[10],50.3 µM
same,GI50,[11],3.45 µM
same,TGI,[11],17.9 µM
same,GI50,[12],4.31 µM
same,TGI,[12],39.5 µM
same,GI50,[13],1960 nM
same,TGI,[13],15 µM
same,GI50,[14],695 nM
same,TGI,[14],13.2 µM
same,GI50,[15],7.07 µM
same,TGI,[15],42.1 µM
same,GI50,[16],1000 nM
same,TGI,[16],11.3 µM
same,GI50,[17],8.72 µM
same,TGI,[17],21.4 µM
same,GI50,[18],3.55 µM
same,TGI,[18],27 µM
same,GI50,[19],524 nM
same,TGI,[19],6.6 µM
same,GI50,[20],535 nM
same,TGI,[20],2780 nM
same,GI50,[21],1110 nM
same,TGI,[21],6.55 µM
same,GI50,[22],3.9 µM
same,TGI,[22],18.5 µM
same,GI50,[23],1810 nM
same,TGI,[23],22.4 µM
same,GI50,[24],2540 nM
same,TGI,[24],16.8 µM
same,GI50,[25],3.23 µM
same,TGI,[25],10.8 µM
same,GI50,[26],2280 nM
same,TGI,[26],16.6 µM
same,GI50,[27],685 nM
same,TGI,[27],13.1 µM
same,GI50,[28],1230 nM
same,TGI,[28],13.7 µM
same,GI50,[29],3.4 µM
same,TGI,[29],18.3 µM
same,GI50,[30],618 nM
same,TGI,[30],2380 nM
same,GI50,[31],1320 nM
same,TGI,[31],6.02 µM
same,GI50,[32],704 nM
same,TGI,[32],9.53 µM
same,GI50,[33],1540 nM
same,TGI,[33],16.4 µM
same,GI50,[34],4.51 µM
same,TGI,[34],18.6 µM
same,GI50,[35],925 nM
same,TGI,[35],4.99 µM
same,GI50,[36],520 nM
same,TGI,[36],10.9 µM
same,GI50,[37],3.2 µM
same,TGI,[37],23 µM
same,GI50,[38],737 nM
same,TGI,[38],12.8 µM
same,GI50,[39],1090 nM
same,TGI,[39],5.56 µM
same,GI50,[40],3.04 µM
same,TGI,[40],16.5 µM
same,GI50,[41],3.03 µM
same,TGI,[41],25.8 µM
same,GI50,[42],1870 nM
same,TGI,[42],13.2 µM
same,GI50,[43],422 nM
same,TGI,[43],2810 nM
same,GI50,[44],4.06 µM
same,TGI,[44],16.6 µM
same,GI50,[45],888 nM
same,TGI,[45],10.8 µM
same,GI50,[46],3.64 µM
same,TGI,[46],66.6 µM
same,GI50,[47],1300 nM
same,TGI,[47],13.9 µM
same,GI50,[48],2710 nM
same,TGI,[48],12.6 µM
same,GI50,[49],2720 nM
same,TGI,[49],18 µM
same,GI50,[50],1700 nM
same,TGI,[50],8.66 µM
same,GI50,[51],851 nM
same,TGI,[51],11.4 µM
same,GI50,[52],612 nM
same,TGI,[52],5.68 µM
same,GI50,[53],2970 nM
same,TGI,[53],13.6 µM
same,TGI,[54],> 100 µM
same,GI50,[55],1220 nM
same,TGI,[55],14.5 µM
same,GI50,[56],1820 nM
same,TGI,[56],11.4 µM
same,GI50,[57],3.24 µM
same,TGI,[57],17.4 µM
same,GI50,[58],1790 nM
same,TGI,[58],13.5 µM
